Among the data in US9221798B2, “4-substituted-(3-substituted-1H-pyrazole-5-amino)-pyrimidine derivatives having activity of inhibiting protein kinase and use thereof” (Zhejian Hisun Pharmaceutical Co., Ltd., priority 2011, dated 2015) are EC50 and IC50 values, retold here.

One experiment relates to HepG2. The experiment can be described thus: Test for activity of inhibiting tumor cells (CellTiter-Glo cell viability), HepG2. The class given is cell-based. The note with it: Homo sapiens, half growth inhibition concentration, 72 hours incubation. The source says:
(§1) Reagents and consumables: 1. Tumor cells were available from HD Biosciences (Shanghai) Co., Ltd. and detected mycoplasma-free; 2. RPMI 1640 Culture Medium, available from U.S. Invitrogen, Code No.: 31800-022; 3. F12K Culture Medium, available from U.S. Invitrogen, Code No.: 21127-022; 4. DMEM Culture Medium, available from U.S. Invitrogen, Code No.: 12100-046; 5. Fetal bovine serum, available from U.S. Hyclone, Code No.: CH30160.03; 6. Penicillin-Streptomycin liquid, available from U.S. Invitrogen, Code No.: 15140-122; 7. Gemcitabine, available from U.K. Tocris, Code No.: 3259; 8. DMSO, available from U.S. Sigma, Code No.: D4540; 9. 96-well cell culture plate, available from U.S. Corning, Code No.: 3610; 10. CellTiter-Glo Luminescent Cell Viability Assay, available from U.S. Promega, Code No.: G7571; 11. Plate Reader, available from U.S. Perkin Elmer, EnVision Multilabel Plate Reader.
(§2) The cell culture mediums: 1. RPMI 1640 whole cell culture medium: a RPMI 1640 culture medium containing 10% fetal bovine serum and 100 U penicillin and 100 μg/mL streptomycin. 2. F12K whole cell culture medium: a F12K culture medium containing 10% fetal bovine serum and 100 U penicillin and 100 μg/mL streptomycin. 3. DMEM whole cell culture medium: a DMEM culture medium containing 10% fetal bovine serum and 100 U penicillin and 100 μg/mL streptomycin.
Preparation of the compounds: 1. A test compound was formulated into a mother liquor in a concentration of 30 mM, and the mother liquor was divided into aliquots and stored in a refrigerator at −80° C. 2. The mother liquors of the test compounds in a concentration of 30 mM were diluted with DMSO to a series of solutions in gradient concentrations, wherein these gradient concentrations included 25 mM, 5 mM, 1 mM, 200 μM, 40 μM, 8 μM, 1.6 μM, 0.32 μM. […]
(§3) Procedures: 1. […] The cell plate was placed into the plate reader for analysis. Set to read chemiluminescence and record the data.
(§4) Data Process: The data read in each well were required to be converted into cell viability. The cell viability could be calculated by using formulae. […]

In the next experiment the test system is A549. Description: Test for activity of inhibiting tumor cells (CellTiter-Glo cell viability), A549. The note with it: Homo sapiens, half growth inhibition concentration, 72 hours incubation. It is filed as cell-based.
Excerpt: as §1
The cell culture mediums: 1. RPMI 1640 whole cell culture medium: a RPMI 1640 culture medium containing 10% fetal bovine serum and 100 U penicillin and 100 μg/mL streptomycin. 2. […]
as §3, §4
(In ATP-based viability assays light output follows the ATP content of the culture.)

The next experiment deals with T1, Aurora A kinase (Homo sapiens, UniProt O14965).
T1 sequence (O14965 1-403): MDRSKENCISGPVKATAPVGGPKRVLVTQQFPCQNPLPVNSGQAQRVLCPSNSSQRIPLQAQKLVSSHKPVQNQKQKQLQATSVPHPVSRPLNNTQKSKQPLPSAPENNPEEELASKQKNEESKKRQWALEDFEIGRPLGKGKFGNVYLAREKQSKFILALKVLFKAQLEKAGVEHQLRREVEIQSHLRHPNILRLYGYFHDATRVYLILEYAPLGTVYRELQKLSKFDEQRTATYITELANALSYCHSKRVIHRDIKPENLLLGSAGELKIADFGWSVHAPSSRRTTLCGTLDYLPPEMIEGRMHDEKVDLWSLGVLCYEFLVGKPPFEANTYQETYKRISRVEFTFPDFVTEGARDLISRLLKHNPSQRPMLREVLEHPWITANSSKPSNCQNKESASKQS
Description: Assay for the inhibiting activity of kinase (Glo Plus / ADP Glo / Caliper), Aurora A. The note with it: kinase inhibition, incubated at 30° C. for 1 hour. The class given is biochemical. As for the experimental part: (§5) Experimental Reagents: a buffer solution of 25 mM HEPES, 10 mM MgCl2, 0.01% Triton X-100, 100 μg/mL BSA, 2.5 mM DTT, pH=7.4; ATP was available from U.S. Sigma (cat. A7699); Glo Plus Kinase Reagent was available from U.S. Promega (cat. V3773); ADP Glo Reagent was available from U.S. Promega (cat. V9102).
(§6) Procedures of the detection experiment for Glo Plus and ADP Glo kinases: the kinase(s), substrate, ATP and the compound(s) to be tested were mixed on a 384-well culture plate, with a total volume of 10 μL of the mixture, […], and then the culture plate was incubated at 30° C. for 1 hour. Test for Glo Plus kinase activity: add 10 μL of Glo Plus kinase per well to the mixture and then incubate at 27° C. for 20 minutes. Test for ADP Glo kinase activity: add 10 μL of ADP Glo per well to the culture plate, and then incubate at 27° C. for 40 minutes. Then a kinase detection reagent (10 μL per well) was added to the culture plate which was incubated at 27° C. for 30 minutes. Read the values from the plate reader to determine inhibition data.
(§7) Biologic testing procedures of Caliper kinase: the kinase, substrate, ATP and the compound to be tested were mixed in a 96-well culture plate, with a total volume of 50 μL of the mixture, and then the culture plate was incubated at 30° C. for 1 hour. Add 20 μL of 35 mM EDTA to the culture plate. A solution of 26 μL of the reaction mixture was transferred to a 384-well culture plate, and read the values on a plate reader to determine inhibition data.
(In general: In ADP-Glo the light output rises with the ADP produced.)

A further experiment deals with K562. Description: Test for activity of inhibiting tumor cells (CellTiter-Glo cell viability), K562. It is filed as cell-based. The note with it: Homo sapiens, half growth inhibition concentration, 72 hours incubation.
Excerpt: as §1, §2
Preparation of the compounds: 1. A test compound was formulated into a mother liquor in a concentration of 30 mM, and the mother liquor was divided into aliquots and stored in a refrigerator at −80° C. 2. The mother liquors of the test compounds in a concentration of 30 mM were diluted with DMSO to a series of solutions in gradient concentrations, wherein these gradient concentrations included 25 mM, 5 mM, 1 mM, 200 μM, 40 μM, 8 μM, 1.6 μM, 0.32 μM. Then the formulated solutions in gradient concentrations were diluted five times with the whole cell culture mediums, and then the gradient concentrations of the test compounds included 5 mM, 1 mM, 200 μM, 40 μM, 8 μM, 1.6 μM, 0.32 μM, 0.064 μM dissolved in 20% DMSO. 3. Only before the experiments began, the prepared solutions of the test compounds in series of gradient concentrations were diluted one hundred times with the whole cell culture mediums under sterile conditions, wherein these gradient concentrations of the test compounds included 50 μM, 10 μM, 2 μM, 0.4 μM, 0.08 μM, 16 nM, 3.2 nM, 0.64 nM; which were 2× the compound solutions and they could be used to treat the cells. 4. […]
as §3, §4

The target of a further experiment is Raf-1 kinase (Homo sapiens, UniProt P04049). Description: Assay for the inhibiting activity of kinase (Glo Plus / ADP Glo / Caliper), Raf-1. The class given is biochemical. The note with it: kinase inhibition, incubated at 30° C. for 1 hour. As for the experimental part: as §5, §6, §7

A word on the EC50: it is the concentration at which the effect is half-maximal. A high value points to a less potent agent. For orientation: IC50 means the point on the concentration scale where inhibition reaches its midpoint.

Sequence of Raf-1 kinase (P04049 whole entry): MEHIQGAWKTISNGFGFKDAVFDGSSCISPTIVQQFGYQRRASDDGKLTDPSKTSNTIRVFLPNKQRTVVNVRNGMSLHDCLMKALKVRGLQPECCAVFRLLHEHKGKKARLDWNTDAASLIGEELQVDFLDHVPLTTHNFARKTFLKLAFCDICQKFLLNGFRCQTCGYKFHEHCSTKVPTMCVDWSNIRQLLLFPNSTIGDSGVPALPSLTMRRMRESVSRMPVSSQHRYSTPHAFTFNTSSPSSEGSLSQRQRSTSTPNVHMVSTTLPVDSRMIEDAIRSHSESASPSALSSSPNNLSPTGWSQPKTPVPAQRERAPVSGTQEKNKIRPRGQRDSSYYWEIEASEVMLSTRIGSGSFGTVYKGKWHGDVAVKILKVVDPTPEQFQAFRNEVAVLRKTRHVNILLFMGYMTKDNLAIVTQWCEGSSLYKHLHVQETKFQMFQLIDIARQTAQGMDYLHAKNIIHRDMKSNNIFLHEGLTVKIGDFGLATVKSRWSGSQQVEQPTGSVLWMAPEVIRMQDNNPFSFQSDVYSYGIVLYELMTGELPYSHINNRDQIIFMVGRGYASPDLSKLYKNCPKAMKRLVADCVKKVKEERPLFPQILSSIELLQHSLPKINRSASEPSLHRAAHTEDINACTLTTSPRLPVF

As to `COc1cnc(Nc2cc(NC(=O)Nc3ccc(Cl)c(C(F)(F)F)c3)ccc2C)nc1Nc1cc(C)[nH]n1` [Compound 9, 1-(4-chloro-3-trifluoromethyl-phenyl)-3-{3-[5-methoxy-4-(5-methyl-1H-pyrazol-3-yl-amino)-pyrimidin-2-yl-amino]-4-methyl-phenyl}-urea], the figures for the concentration giving a half-maximal response (EC50) with HepG2, with A549 and with K562 were 17.7 µM, 13.3 µM and 4.8 µM, respectively. For the same compound, the IC50 on Aurora A kinase was 0.34 µM; at Raf-1 kinase, 0.24 µM.
For the compound `Cc1cc(Nc2nc(Nc3cc(NC(=O)Nc4ccc(Cl)c(C(F)(F)F)c4)ccc3C)ncc2O)n[nH]1` [Compound 11, 1-(4-chloro-3-trifluoromethyl-phenyl)-3-{3-[5-hydroxy-4-(5-methyl-1H-pyrazol-3-yl-amino)-pyrimidin-2-yl-amino]-4-methyl-phenyl}-urea], on Raf-1 kinase, the IC50 worked out at 2.14 µM.
Regarding `Cc1cc(Nc2ccnc(Nc3cc(NC(=O)Nc4ccc(Cl)c(C(F)(F)F)c4)ccc3C)n2)n[nH]1` [Compound 4, 1-(4-chloro-3-trifluoromethyl-phenyl)-3-{4-methyl-3-[4-(5-methyl-1H-pyrazol-3-yl-amino)-pyrimidin-2-yl-amino]-phenyl}-urea], on Aurora A kinase, the concentration for half-maximal inhibition (IC50) was determined as 2.68 µM.
For the compound `Cc1cc(Nc2nc(Nc3cc(NC(=O)Nc4ccc(Cl)c(C(F)(F)F)c4)ccc3C)ncc2C(F)(F)F)n[nH]1` [Compound 3, 1-(4-chloro-3-trifluoromethyl-phenyl)-3-{4-methyl-3-[4-(5-methyl-1H-pyrazol-3-yl-amino)-5-trifluoromethyl-pyrimidin-2-yl-amino]-phenyl}-urea], the IC50 at Raf-1 kinase is 1.53 µM.
Turning to `Cc1cc(Nc2nc(Nc3cc(NC(=O)Nc4ccc(Cl)c(C(F)(F)F)c4)ccc3C)ncc2C)n[nH]1` [Compound 6, 1-(4-chloro-3-trifluoromethyl-phenyl)-3-{4-methyl-3-[5-methyl-4-(5-methyl-1H-pyrazol-3-yl-amino)-pyrimidin-2-yl-amino]-phenyl}-urea], the concentration for a half-maximal effect (EC50) in the experiment with HepG2 was found to be 6.98 µM; in the experiment on K562, 4.87 µM. For the same compound, the IC50 was 0.14 µM on Aurora A kinase and 0.25 µM on Raf-1 kinase.
Consider `Cc1cc(Nc2nc(Nc3cc(NC(=O)Nc4ccc(Cl)c(C(F)(F)F)c4)ccc3C)ncc2N)n[nH]1` [Compound 8, 1-(4-chloro-3-trifluoromethyl-phenyl)-3-{4-methyl-3-[5-methyl-4-(5-methyl-1H-pyrazol-3-yl-amino)-5-amino-pyrimidin-2-yl-amino]-phenyl}-urea], for which the IC50 turned out to be 2.1 µM on Aurora A kinase and 0.41 µM at Raf-1 kinase. In the experiment with K562, this compound came in with an EC50 of 11.9 µM.
Regarding `Cc1cc(Nc2nc(Nc3cc(NC(=O)Nc4ccc(Cl)c(C(F)(F)F)c4)ccc3C)ncc2F)n[nH]1` [Compound 2, 1-(4-chloro-3-trifluoromethyl-phenyl)-3-{3-[5-fluoro-4-(5-methyl-1H-pyrazol-3-yl-amino)-pyrimidin-2-yl-amino]-4-methyl-phenyl}-urea], the figures for the concentration for a half-maximal effect (EC50) with HepG2 and with K562 were 3.82 µM and 4 µM, respectively. Further, the IC50 at Aurora A kinase is 0.78 µM; on Raf-1 kinase, 0.38 µM.
